# Assay results as given in patent US9938260B2, “Soluble guanylate cyclase activators and their use” (GlaxoSmithKline Intellectual Property Development Limited, priority 2014, dated 2018).
# Where a name gives a salt, the structure may show the parent alone.
# Target: T1, soluble guanylate cyclase (sGC) (Rattus norvegicus, UniProt P20595)
# T1 construct: endogenous in cells; host or cells: primary rat aortic smooth muscle cells
# T1 sequence (P20595 1-619): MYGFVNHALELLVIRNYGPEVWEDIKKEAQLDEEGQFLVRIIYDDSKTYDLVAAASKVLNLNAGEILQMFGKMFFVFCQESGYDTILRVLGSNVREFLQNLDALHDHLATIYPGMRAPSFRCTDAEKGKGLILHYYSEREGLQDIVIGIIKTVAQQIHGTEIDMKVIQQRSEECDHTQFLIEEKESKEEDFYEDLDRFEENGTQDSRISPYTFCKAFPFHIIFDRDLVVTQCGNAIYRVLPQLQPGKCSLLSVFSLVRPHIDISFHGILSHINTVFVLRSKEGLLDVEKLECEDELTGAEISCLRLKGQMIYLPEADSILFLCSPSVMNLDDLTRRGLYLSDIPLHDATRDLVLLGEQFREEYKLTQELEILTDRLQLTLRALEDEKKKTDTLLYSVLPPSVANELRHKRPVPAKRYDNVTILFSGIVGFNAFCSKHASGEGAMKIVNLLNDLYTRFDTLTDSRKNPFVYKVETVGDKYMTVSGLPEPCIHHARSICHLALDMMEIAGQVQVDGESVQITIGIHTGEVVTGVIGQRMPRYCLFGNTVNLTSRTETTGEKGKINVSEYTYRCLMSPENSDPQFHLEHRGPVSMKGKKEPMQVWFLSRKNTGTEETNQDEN
# T1 sequence (P19686 1-690 partner): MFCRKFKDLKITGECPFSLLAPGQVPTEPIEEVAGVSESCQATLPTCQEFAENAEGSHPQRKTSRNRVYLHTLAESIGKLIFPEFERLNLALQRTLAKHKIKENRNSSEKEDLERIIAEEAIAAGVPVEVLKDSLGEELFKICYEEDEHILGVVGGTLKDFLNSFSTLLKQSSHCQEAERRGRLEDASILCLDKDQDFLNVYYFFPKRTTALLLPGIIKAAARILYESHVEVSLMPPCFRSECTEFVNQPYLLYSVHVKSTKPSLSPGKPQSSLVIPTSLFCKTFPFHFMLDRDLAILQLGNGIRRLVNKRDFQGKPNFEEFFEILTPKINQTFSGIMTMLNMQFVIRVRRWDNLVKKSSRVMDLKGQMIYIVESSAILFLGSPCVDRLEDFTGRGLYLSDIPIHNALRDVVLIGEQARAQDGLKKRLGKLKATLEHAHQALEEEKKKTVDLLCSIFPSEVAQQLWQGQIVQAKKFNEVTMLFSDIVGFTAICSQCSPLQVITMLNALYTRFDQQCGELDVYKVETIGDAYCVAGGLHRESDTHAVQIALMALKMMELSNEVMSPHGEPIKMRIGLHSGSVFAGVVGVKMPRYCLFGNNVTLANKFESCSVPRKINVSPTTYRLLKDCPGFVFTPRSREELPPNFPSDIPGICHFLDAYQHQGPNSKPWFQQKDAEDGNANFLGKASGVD
# Assay: Biological cellular assay: sGC activity by phosphorylation of VASP in rat aortic smooth muscle cells
# Assay type: cell-based
# Conditions: primary rat aortic smooth muscle cells, pre-incubated with 10 μM ODQ, 30 min at 37° C., phospho-VASP (pSer239) fluorescent signal; read-out: Cell assay pEC50 (converted)
# Experimental: The activity of soluble guanylate cyclase (sGC) was tested in an assay based on measuring phosphorylation of the protein kinase G (PKG) substrate vasodilator-stimulated phosphoprotein (VASP) in rat aortic smooth muscle cells. […] Dimethylsulfoxide (DMSO) vehicle and varying concentrations of the compound to be tested were then added. Following a 30 min incubation at 37° C., media was aspirated and the cells were rinsed with phosphate-buffered saline (PBS) and fixed with 4% formaldehyde in PBS by incubating at room temperature for 20 min. Cells were then washed with PBS and permeabilized for 10 min using 0.1% triton X-100 in PBS. Following PBS rinsing, the cells were blocked for 90 min at room temperature with blocking buffer. The buffer was aspirated and the cells were treated overnight at 4° C. with primary antibody (pSer239-VASP, rabbit polyclonal Ab) diluted 1:500 in blocking buffer. Following three washes with 0.05% Tween 20, the cells were treated for 1 h at room temperature with a fluorescent labeled secondary antibody (IRDye® 800CW Donkey Anti-Rabbit IgG) diluted 1:2500 in blocking buffer with 0.05% Tween 20. Following two washes with PBS, infrared fluorescence was measured using an Odyssey Infrared Imaging System. The activity of a test compound was determined as the pEC50 value which is the concentration able to increase by 50% (vs. Bmax) the phospho-VASP fluorescent signal. Front. Pharmacol., 5 Jul. 2012|doi: 10.3389/fphar.2012.00128, Volume 3 July, 2012, Article number 128.
row,SMILES,EC50 [nM]
1,"Cc1cc(OC2CCN(CC(F)(F)F)CC2)ccc1COc1c(F)cc(F)cc1-c1cccc(N2CCC(C(=O)O)CC2)n1 [Example 93, 1-(6-(3,5-difluoro-2-((2-methyl-4-((1-(2,2,2-trifluoroethyl)piperidin-4-yl)oxy)benzyl)oxy)phenyl)pyridin-2-yl)piperidine-4-carboxylic acid, Sodium salt]",7.94
2,"Cc1cc(C2CCN(C(=O)CC3CC3)CC2)ccc1COc1c(F)cc(F)cc1-c1cccc(N2CCC(C(=O)O)CC2)n1 [Example 66, 1-(6-(2-((4-(1-(2-cyclopropylacetyl)piperidin-4-yl)-2-methylbenzyl)oxy)-3,5-difluorophenyl)pyridin-2-yl)piperidine-4-carboxylic acid, Sodium salt]",0.316
3,"Cc1cc(C2CCN(CC(F)(F)F)CC2)ncc1COc1c(F)cc(F)cc1-c1cccc(N2CCC(C(=O)O)CC2)n1 [Example 9, 1-(6-(3,5-difluoro-2-((4-methyl-6-(1-(2,2,2-trifluoroethyl)piperidin-4-yl)pyridin-3-yl)methoxy)phenyl)pyridin-2-yl)piperidine-4-carboxylic acid, sodium salt]",10
4,"Cc1cc(C2CCN(C3COC3)CC2)ccc1COc1c(Cl)cccc1-c1cccc(N2CCC(C(=O)O)CC2)n1 [Example 36, 1-(6-(3-chloro-2-((2-methyl-4-(1-(oxetan-3-yl)piperidin-4-yl)benzyl)oxy)phenyl)pyridin-2-yl)piperidine-4-carboxylic acid, Sodium salt]",10
5,"Cc1cc(C2CCN(CC(F)(F)F)CC2)ccc1COc1c(F)cc(F)cc1-c1cccc(N2CCC(C(=O)O)CC2)n1 [Example 5, 1-(6-(3,5-difluoro-2-((2-methyl-4-(1-(2,2,2-trifluoroethyl)piperidin-4-yl)benzyl)oxy)phenyl)pyridin-2yl)piperidine-4-carboxylic acid]",0.501
6,"Cc1cc(C2CCN(CCC(F)(F)F)CC2)ccc1COc1c(F)cc(F)cc1-c1cccc(N2CCC(C(=O)O)CC2)n1 [Example 54, 1-(6-(3,5-difluoro-2-((2-methyl-4-(1-(3,3,3-trifluoropropyl)piperidin-4-yl)benzyl)oxy)phenyl)pyridin-2-yl)piperidine-4-carboxylic acid, Sodium salt]",2.51
7,"Cc1cc(C2CCN(C(=O)C3COC3)CC2)ccc1COc1c(F)cc(F)cc1-c1cccc(N2CCC(C(=O)O)CC2)n1 [Example 6, 1-(6-(3,5-difluoro-2-((2-methyl-4-(1-(oxetane-3-carbonyl)piperidin-4-yl)benzyl)oxy)phenyl)pyridin-2yl)piperidine-4-carboxylic acid]",0.1
8,"Cc1cc(C2CCN(C(=O)CO)CC2)ccc1COc1c(F)cc(F)cc1-c1cccc(N2CCC(C(=O)O)CC2)n1 [Example 57, 1-(6-(3,5-difluoro-2-((4-(1-(2-hydroxyacetyl)piperidin-4-yl)-2-methylbenzyl)oxy)phenyl)pyridin-2-yl)piperidine-4-carboxylic acid, Sodium salt]",0.0794

# Continued, values first:
row,EC50 [nM],SMILES
1,158,"Cc1nc(C2CCN(C3CCOC3)CC2)ccc1COc1c(F)cc(F)cc1-c1cccc(N2CCC(C(=O)O)CC2)n1 (stereo not shown) [Example 20, 1-(6-(3,5-difluoro-2-((2-methyl-6-(1-(tetrahydrofuran-3-yl)piperidin-4-yl)pyridin-3-yl)methoxy)phenyl)pyridin-2-yl)piperidine-4-carboxylic acid]"
2,0.0891,"Cc1cc(C2CCN(C(=O)[C@@H]3CCOC3)CC2)ccc1COc1c(F)cc(F)cc1-c1cccc(N2CCC(C(=O)O)CC2)n1 [Example 73, (R)-1-(6-(3,5-difluoro-2-((2-methyl-4-(1-(tetrahydrofuran-3-carbonyl)piperidin-4-yl)benzyl)oxy)phenyl)pyridin-2-yl)piperidine-4-carboxylic acid, Sodium salt]"
3,15.8,"Cc1nc(C2CCN(C(=O)CO)CC2)ccc1COc1c(F)cc(F)cc1-c1cccc(N2CCC(C(=O)O)CC2)n1 [Example 33, 1-(6-(3,5-difluoro-2-((6-(1-(2-hydroxyacetyl)piperidin-4-yl)-2-methylpyridin-3-yl)methoxy)phenyl)pyridin-2-yl)piperidine-4-carboxylic acid, Sodium salt]"
4,79.4,"Cc1nc(C2CCN(C3COC3)CC2)ccc1COc1c(F)cc(F)cc1-c1cccc(N2CCC(C(=O)O)CC2)n1 [Example 17, 1-(6-(3,5-difluoro-2-((2-methyl-6-(1-(oxetan-3-yl)piperidin-4-yl)pyridin-3-yl)methoxy)phenyl)pyridin-2-yl)piperidine-4-carboxylic acid]"
5,0.251,"Cc1cc(C2CCN(C(=O)C3CCOC3)CC2)ccc1COc1c(F)cc(F)cc1-c1cccc(N2CCC(C(=O)O)CC2)n1 (stereo not shown) [Example 69, 1-(6-(3,5-difluoro-2-((2-methyl-4-(1-(tetrahydrofuran-3-carbonyl)piperidin-4-yl)benzyl)oxy)phenyl)pyridin-2-yl)piperidine-4-carboxylic acid, Sodium salt]"
